Key:
HUVEC cells = assay: HUVEC cytotoxicity; type: cell-based; details: 48 hours, up to 10 μM
Method: HUVEC were treated with COH-SR4 at a concentration from 0.1˜100 μM for 48 hours.

A2058 = assay: Colony formation assay, A2058; type: cell-based, human
Method: Cell survival was evaluated using a standard colony-forming assay. […] After 7 or 10 days, adherent colonies were fixed, stained with 0.5% methylene blue for 30 min and colonies were counted using the Innotech Alpha Imager HP (91).

A2058 cells = assay: Mitochondrial membrane depolarization, TMRE; type: cell-based, human; details: 5 μM
Method: Cells (4×10^5/well in 6-well plates) cultured overnight were pre-incubated with the fluorescent indicator of MMP tetramethylrhodamine ester (TMRE, 200 nM) or DMSO control for 30 min at 37° C. in CO2 incubator. Cells were washed with pre-warmed normal DMEM media, and test compounds were added with fresh media for the indicated times. Cells were then trypsinized, collected, centrifuged for 5 min at 800×g, and washed once in pre-warmed PBS-0.2% BSA. Cells were then resuspended in the same buffer prior to flow cytometric analysis. A total of 30,000 cells were counted per sample and data was analyzed by Cyan ADP flow cytometer with excitation/emission of 488 nm/572 nm (Beckman Coulter, Inc., Brea, Calif.). For measurements of membrane potential in isolated mouse liver mitochondria, the organelles were pre-incubated with 200 nM TMRE in MASSRO buffer (MAS buffer supplemented with 10 mM succinate, 1 μM rotenone, and 1 μM oligomycin) for 20 min at 25° C. The mitochondria were centrifuged for 5 min at 3000×g and resuspended in MASSRO buffer. Mitochondria were then added to MASSRO buffer containing the indicated concentrations of COH-SR4, FCCP or DMSO vehicle control and incubated at room temperature for 15 min. […] TMRE fluorescence was measured with a microplate reader (Tecan Infinite M200 Pro, Tecan Group Ltd., Switzerland) using an excitation emission of 545ex/580em. […]

p38 MAPK, ERK1/2, JNK = assay: MAPK/ERK signaling in melanoma cells, Western blotting; type: cell-based; details: 0-10 μM; 5 μM 0-24 h
Method: Cell or tissue proteins were extracted with cell lysis buffer (Cell Signaling Technology) and protein concentration was determined using the DC Protein Assay kit (Bio-Rad, Hercules, Calif., USA). Equal amount of proteins (˜40 μg) were loaded onto 4-15% Criterion TGX gels (Bio-Rad, Hercules, Calif.), resolved by SDS-PAGE electrophoresis, and then transferred onto nitrocellulose membranes for immunoblotting. Membranes were blocked with 5% skimmed milk in Tris-buffered saline containing 0.05% Tween 20 before incubation overnight at 4° C. with desired primary antibodies. Immuno-reactive proteins were visualized by peroxidase-labeled secondary antibodies and ECL system (Western Lightning Chemiluminescence Reagent, Perkin-Elmer, Mass., USA). […] Band intensities were quantified using a densitometer (Quantity One, Bio-Rad, Hercules, Calif.).
To investigate whether COH-SR4 affected the MAPK/ERK signaling pathway in human melanoma, the phosphorylation levels of p38 MAPK (T^180/Y^182), ERK1/2 (T^202/Y^204), and pJNK (T^183/Y^185), in A101D, A2058, SK-Mel-5, SK-MEL-28 and B16-F0 melanoma cells were examined after COH-SR4 treatment at various doses (0-10 μM) (FIG. 76A) or at a dose of 5 μM at various time points (0-24 h) (FIG. 76B). Total proteins were isolated and analyzed by Western blotting.

GST = assay: Total GST activity towards CDNB in H358 tumor tissue lysates; type: in vivo; details: n=3; control 0.32±0.03
From the text: The effect of COH-SR4 on signaling pathways of relevance to lung cancer progression was further analyzed by Western-blots of lysates from resected tumors (as described in Example 31). GAPDH was used as internal control. The bar diagrams (FIG. 82B) represent the fold change in the levels of proteins as compared to the controls as determined by densitometry. Dotted line represents no significant change observed when compared to the controls. The COH-SR4 treated groups had high levels of cleaved-PARP compared to the untreated controls, which reinforces the finding of apoptotic effect as observed in-vitro by TUNEL assay. Akt is a signaling protein that transduces the proliferative signals from upstream integrins and growth factor receptors. The COH-SR4 treatments increased the levels of PARP cleavage along with decreased levels of pAkt (S^473). […] In accordance with decreased levels of pAkt (S^473), the levels of pP70S6K were decreased in COH-SR4 treated groups compared to controls. […] COH-SR4 treated tumor tissue lysates were analyzed to test the impact of long term COH-SR4 treatment in vivo on GST expression and activity. […] The total GST activity as measured by activity towards CDNB as a substrate, in COH-SR4 treated tumor tissue lysates was lower compared to the controls [control, 0.32±0.03 U/mg protein; COH-SR4 treated, 0.21±0.05 U/mg protein; (n=3)]. […]

[1] = Metabolic effects in HFD obese mice; type: in vivo, mouse
Method: All animal experiments were carried out in accordance with the protocols approved by the Institutional Animal Care and Use Committee of the City of Hope. Nine-week old male C57BL/6J mice fed on high fat diet (HFD, 60% fat) and 10-week old db/db mice were given COH-SR4 (5 mg/kg B.W.) or vehicle (corn oil) via oral gavage every other day for six and five weeks, respectively. Oral glucose tolerance test was performed on animals after an overnight fast. All other metabolic parameters were measured at the end of study. Liver samples were stained with H&E and Oil Red O.
All data represented are mean±SEM. *P<0.05, **P<0.01 vs. LFD or db/+; ^#P<0.05, ^##P<0.01 vs. HFD or db/db. n=12 animals per group for HFD mice. LFD=low fat diet (lean), HFD=high fat diet (obese). n=8 animals per group for db/db mice.
Representative mice in each treatment group (LFD, HFD, and HFD treated with COH-SR4 (HFD+SR4)) depicted gross images of whole body shape (top) and abdominal fat (bottom) (FIG. 85A).

In the case of `O=C(Nc1cc(Cl)cc(Cl)c1)Nc1cc(Cl)cc(Cl)c1` [COH-SR4, 1,3-bis(3,5-dichlorophenyl) urea], the “cytotoxicity to HUVEC cells” value (HUVEC cells) is reported as “almost no cytotoxicity”, the colony formation (A2058; 5 μM) is reported as 43±7% and the colony formation (A2058; 10 μM, vs untreated control) is reported as 37±4%. The “mitochondrial membrane depolarization (TMRE fluorescence)” value (A2058 cells) was “induced mitochondrial membrane depolarization in a time-dependent manner”, the “phosphorylation of p38 MAPK and ERK1/2” value (p38 MAPK, ERK1/2, JNK) was “dose- and time dependent increase in the levels of phosphorylation of p38 MAPK (T^180/Y^182) and ERK1/2 (T^202/Y^204)” and the “total GST activity towards CDNB” value (GST) was 0.21±0.05 U/mg protein. The body weight ([1]; 5 mg/kg oral every other day, six weeks) was “decreased body weight”, the glucose tolerance ([1]; six weeks) was “improved glucose tolerance” and the “hepatic lipid accumulation (Oil Red O, H&E)” value ([1]; six weeks) was “little hepatic lipid accumulation”. For the same compound, the plasma insulin concentration ([1]; six weeks) was “lower plasma insulin concentration”, the plasma lipids ([1]; six weeks) was “significantly reduced plasma lipids” and the food intake ([1]; vs control HFD mice) was “No significant difference in food intake”.
